Assay results from article PMC10192561 (Frontiers in Pharmacology, 2023).
“Also recorded” adds a separate entry of the source. Read-outs that look alike come from different tables or passages of the source.

Key:
[1] = Pharmacokinetics of flumatinib and M1 in SD rats with or without isavuconazole; type: in vivo, Sprague-Dawley male rats; conditions: for AUC(0-inf) / AUC(0-t) / Cmax / Tmax / half-life / CL/F / MRT last / MRT inf: male, Sprague-Dawley, rat, plasma, po, 60 mg/kg; for CL/F: read-out: CLz/F (converted); for MRT last: read-out: MRT0→t; for MRT inf: read-out: MRT0→∞
Procedure: Quantification of the analytes was made by using a Waters XEVO TQS triple quadruple mass spectrometer with a multiple reaction monitoring (MRM) in positive ion mode. The mobile phase was consisted of 0.1% formic acid aqueous solution (A) and acetonitrile (B) at a flow rate of 0.4 mL/min. An elution program of 90% A (0–0.5 min), 90%–10% A (0.5–1.0 min), 10% A (1–1.5 min), 10%–90% A (1.5–1.6 min) and 90% A (1.6–2 min) was performed. The whole elution took 2 min. During the analysis, the temperature of the column and autosampler rack was controlled at 40°C and 10°C, respectively.
Sprague–Dawley male rats (SD male rats, 200 ± 20 g) were purchased from the Animal Experimental Center of The First Affiliated Hospital of Wenzhou Medical University (Zhejiang, China). […] The rats in both groups started fasting for 12 h ahead of the experiment, but were free to water. […] Tail vein blood samples were collected from rats in both groups at multiple time points (0.67, 1, 1.5, 2, 3, 4, 6, 8, 12, and 24 h). Subsequently, an additional 300 μL acetonitrile and 20 μL dasatinib (200 ng/mL) were added to 100 μL plasma. Then the mixture was vortexed to mix thoroughly for 2 min and centrifuged at 13,000 rpm for 10 min to obtain the final supernatant for UPLC-MS/MS analysis.
IC50 and enzyme kinetic parameters were obtained using GraphPad Prism 8.0 software (GraphPad software Inc., CA, United States). Non-compartmental analysis was performed by using Drugs and Statistics (DAS) software (version 3.0 software, Shanghai University of Traditional Chinese Medicine, China) to obtain pharmacokinetic profiles. Mean plasma concentration-time curves were generated using Origin 8.0, and the parameters were statistically investigated between groups using independent samples t-test by SPSS 24.0 software (SPSS Inc., Chicago, IL, United States). All data were expressed as mean ± SD and p < 0.05 was considered statistically significant.

[2] = target: flumatinib metabolism in HLM (Homo sapiens, UniProt P08684); assay: Inhibition of flumatinib metabolism in human liver microsome incubation (UPLC-MS/MS)
[3] = system: flumatinib metabolism in RLM; assay: Inhibition of flumatinib metabolism in rat liver microsome incubation (UPLC-MS/MS); conditions: rat, rat liver microsomes
[4] = system: rat liver microsomes (RLM); assay: Michaelis-Menten kinetics of flumatinib metabolism in RLM; type: in vitro ADME; conditions: flumatinib as substrate, RLM 0.4 mg/mL
Procedure: An in vitro liver microsome incubation system was set up, then the drug was added to the system and incubated for […] as to determine the metabolism of the drug by the microsomes. […] The NADPH-free mixture was preincubated at 37°C for 5 min, followed by the addition of 1 mM NADPH to activate the reaction. The mixture was incubated at 37 °C for 40 min until 20 μL of IS solution (200 ng/mL) and 400 μL of cool acetonitrile were added. It was then centrifuged at 13,000 rpm for 5 min. After that, 100 μL of the supernatant was taken to conduct the analysis by UPLC-MS/MS.

[5] = target: flumatinib metabolism in HLM (CYP3A4; ketoconazole as positive control) (Homo sapiens, UniProt P08684); assay: Inhibition of flumatinib metabolism in human liver microsome incubation (UPLC-MS/MS); conditions: human liver microsomes, probe flumatinib […] (at Km)
[6] = system: rat liver microsomes (RLM); assay: Inhibition of flumatinib metabolism in rat liver microsome incubation (UPLC-MS/MS); conditions: flumatinib metabolism in RLM
[7] = target: recombinant human CYP3A4 (rCYP3A4) (Homo sapiens, UniProt P08684); assay: Inhibition of flumatinib metabolism in recombinant human CYP3A4 incubation (UPLC-MS/MS)
[8] = parameters: method as in McCarthy et al., 2018; conditions: co-administration with isavuconazole; ref McCarthy et al., 2018; cited from earlier work
[9] = group A: 60 mg/kg flumatinib dosed orally alone
[10] = group B: 20 mg/kg isavuconazole and 60 mg/kg flumatinib dosed orally
[11] = probe flumatinib (2.17 µM in RLM, at Km)
[12] = with 20 mg/kg isavuconazole vs flumatinib alone

flumatinib metabolism in HLM, sequence (P08684 2-503): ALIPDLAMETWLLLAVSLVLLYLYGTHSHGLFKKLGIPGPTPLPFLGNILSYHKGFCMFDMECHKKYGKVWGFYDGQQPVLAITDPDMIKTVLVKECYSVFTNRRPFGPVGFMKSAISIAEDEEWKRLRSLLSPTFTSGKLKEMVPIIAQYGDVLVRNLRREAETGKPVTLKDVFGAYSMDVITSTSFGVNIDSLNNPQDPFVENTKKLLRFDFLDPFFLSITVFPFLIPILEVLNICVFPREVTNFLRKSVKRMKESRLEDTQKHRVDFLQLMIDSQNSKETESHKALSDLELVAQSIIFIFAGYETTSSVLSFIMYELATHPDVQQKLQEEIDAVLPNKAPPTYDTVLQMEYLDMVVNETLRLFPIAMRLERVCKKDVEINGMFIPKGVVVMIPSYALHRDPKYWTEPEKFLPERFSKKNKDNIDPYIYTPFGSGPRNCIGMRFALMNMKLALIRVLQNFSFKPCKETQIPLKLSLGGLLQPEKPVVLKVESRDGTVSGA
recombinant human CYP3A4 (rCYP3A4), sequence (P08684 whole entry): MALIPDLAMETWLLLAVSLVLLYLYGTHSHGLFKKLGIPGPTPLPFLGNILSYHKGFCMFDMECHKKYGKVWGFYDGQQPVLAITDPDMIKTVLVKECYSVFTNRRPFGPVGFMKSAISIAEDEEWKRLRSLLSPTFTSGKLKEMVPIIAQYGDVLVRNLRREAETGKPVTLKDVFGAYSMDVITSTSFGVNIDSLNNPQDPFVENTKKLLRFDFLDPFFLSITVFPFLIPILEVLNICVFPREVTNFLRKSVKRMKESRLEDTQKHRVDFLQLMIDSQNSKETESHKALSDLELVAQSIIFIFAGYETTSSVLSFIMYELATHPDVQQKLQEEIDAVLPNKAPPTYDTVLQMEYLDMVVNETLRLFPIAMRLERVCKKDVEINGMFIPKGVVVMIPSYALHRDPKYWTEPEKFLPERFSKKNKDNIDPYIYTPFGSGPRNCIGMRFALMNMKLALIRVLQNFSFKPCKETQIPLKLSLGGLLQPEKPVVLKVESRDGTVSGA
flumatinib metabolism in HLM (CYP3A4; ketoconazole as positive control), sequence (P08684 2-503): as the sequence (P08684 2-503) above

## Cc1ncc(NC(=O)c2ccc(CN3CCNCC3)c(C(F)(F)F)c2)cc1Nc1nccc(-c2cccnc2)n1 [M1, N-desmethyl flumatinib]
[1]; combination vs control group
  effect of isavuconazole on pharmacokinetic parameters of the metabolite: no effect; also recorded: No statistical significances
[1]; [9]
  AUC(0-inf): 314 ± 134 ng·h/mL
  AUC(0-t): 282 ± 135 ng·h/mL
  Cmax: 19.9 ± 32.8 ng/mL
  Tmax: 2.6 ± 1.14 h
  half-life: 5.28 ± 1.24 h
  CL/F: 3940 mL/min/kg
  MRT last: 6.73 ± 1.68 h
  MRT inf: 8.86 ± 1.39 h
[1]; [10]
  AUC(0-inf): 395 ± 63.1 ng·h/mL
  AUC(0-t): 352 ± 49.8 ng·h/mL
  Cmax: 31.9 ± 3.98 ng/mL
  Tmax: 5 ± 2.45 h
  half-life: 7.29 ± 2.01 h
  CL/F: 2580 mL/min/kg
  MRT last: 8.2 ± 0.19 h
  MRT inf: 11.2 ± 1.53 h

## OC(Cn1cncn1)(Cn1cncn1)c1ccc(F)cc1F [fluconazole]
[2]
  IC50 at 40 min: 92.6 µM
[3]; [11]
  IC50 at 40 min: 24.8 µM

## Cc1ncc(NC(=O)c2ccc(CN3CCN(C)CC3)c(C(F)(F)F)c2)cc1Nc1nccc(-c2cccnc2)n1 [flumatinib]
[4]
  Km: 2.2 µM
[1]; [9]
  AUC(0-inf): 3040 ± 664 ng·h/mL
  AUC(0-t): 2750 ± 887 ng·h/mL
  Cmax: 282 ± 36.8 ng/mL
  Tmax: 6 ± 2.74 h
  half-life: 4.04 ± 2.65 h
  CL/F: 340 mL/min/kg
  MRT last: 6.82 ± 1.94 h
  MRT inf: 7.66 ± 2.01 h
[1]; [10]
  AUC(0-inf): 5710 ± 744 ng·h/mL
  AUC(0-t): 4730 ± 1290 ng·h/mL
  Cmax: 481 ± 33.3 ng/mL
  Tmax: 4.4 ± 1.52 h
  half-life: 4.88 ± 2.91 h
  CL/F: 177 mL/min/kg
  MRT last: 6.87 ± 1.33 h
  MRT inf: 9.2 ± 3.59 h
[1]; [12]
  AUC(0–t), group B relative to group A: 1.72 fold
  AUC(0–∞), group B relative to group A: 1.88 fold
  CLz/F lower than group A: 48%
  Cmax, group B relative to group A: 1.70 fold

## C[C@@H](c1nc(-c2ccc(C#N)cc2)cs1)[C@](O)(Cn1cncn1)c1cc(F)ccc1F [isavuconazole]
[5]
  IC50 at 40 min: 6.66 µM
[6]
  Inhibition type: mixed inhibitory mechanisms; also recorded: mixed type; also recorded: a mixture of competitive and non-competitive inhibition; also recorded: Mixed inhibition
  Ki: 1.44 µM
  α: 0.52
[3]; probe flumatinib 2.17 µM (at Km)
  IC50 at 40 min: 0.62 µM
[7]
  Inhibition type: mixed inhibitory mechanisms; also recorded: mixed type; also recorded: a mixture of competitive and non-competitive inhibition; also recorded: Mixed inhibition
  α: 0.71

## CCC(C)n1ncn(-c2ccc(N3CCN(c4ccc(OCC5COC(Cn6cncn6)(c6ccc(Cl)cc6Cl)O5)cc4)CC3)cc2)c1=O (stereo not drawn) [itraconazole]
[2]
  IC50 at 40 min: 11.6 µM
[3]; [11]
  IC50 at 40 min: 1.06 µM

## CC(=O)N1CCN(c2ccc(OCC3COC(Cn4ccnc4)(c4ccc(Cl)cc4Cl)O3)cc2)CC1 (stereo not drawn) [ketoconazole]
[6]
  Inhibition type: mixed inhibitory mechanisms; also recorded: Mixed inhibition
  Ki: 0.33 µM

## CC[C@@H]([C@H](C)O)n1ncn(-c2ccc(N3CCN(c4ccc(OC[C@@H]5CO[C@@](Cn6cncn6)(c6ccc(F)cc6F)C5)cc4)CC3)cc2)c1=O [posaconazole]
[2]; human liver microsomes, probe flumatinib ([…] in HLM, at Km)
  IC50 at 40 min: 1.72 µM
[3]; [11]
  IC50 at 40 min: 1.53 µM

## CO[C@H]1C[C@@H]2CC[C@@H](C)[C@@](O)(O2)C(=O)C(=O)N2CCCC[C@H]2C(=O)O[C@H]([C@H](C)C[C@@H]2CC[C@@H](O)[C@H](OC)C2)CC(=O)[C@H](C)/C=C(\C)[C@@H](O)[C@@H](OC)C(=O)[C@H](C)C[C@H](C)/C=C/C=C/C=C/1C [sirolimus]
[8]
  AUC increase when combined with isavuconazole: 84%

## C=CC[C@@H]1/C=C(\C)C[C@H](C)C[C@H](OC)[C@H]2O[C@@](O)(C(=O)C(=O)N3CCCC[C@H]3C(=O)O[C@H](/C(C)=C/[C@@H]3CC[C@@H](O)[C@H](OC)C3)[C@H](C)[C@@H](O)CC1=O)[C@H](C)C[C@@H]2OC [tacrolimus]
[8]
  AUC increase when combined with isavuconazole: 125%

## C[C@@H](c1ncncc1F)[C@](O)(Cn1cncn1)c1ccc(F)cc1F [voriconazole]
[2]
  IC50 at 40 min: 325 µM
[3]; [11]
  IC50 at 40 min: 12.4 µM
